From patent publication EP1247803A2, “Indolinone compounds suitable for modulation of protein kinases” (Sugen, Inc., priority 1996, dated 1998) come the findings set out here.

Structures are written as SMILES.

In assay [1] the target is PDGF-R (Homo sapiens, UniProt P09619). In words: PDGF-R ELISA. It counts as cell-based. The source says:
A PDGF-R ELISA is described in International Patent Publication No. WO 96/40116, published December 19, 1996 by Tang et al.
Background: ELISA stands for enzyme-linked immunosorbent assay.

Assay [2] addresses T1, FLK-1 receptor (Mus musculus, UniProt P35918).
T1 construct: expressed in transfected cells; host or cells: NIH3T3 C7#3
In words: FLK-1 ELISA (kinase activity of the FLK-1 receptor in FLK-1/NIH3T3 cells, VEGF stimulated). The assay is classed as cell-based. The arrangement: concentration or dose not given beside the values. An outline of the steps: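 NIH3T3 C7#3 cells expressing FLK-1 were seeded at 25.000 cells/well, serum-starved overnight in 0.1% FBS, then treated with compound for two hours at 37°C (final DMSO 0.5%) before VEGF stimulation. Receptor was captured on anti-rabbit IgG-coated ELISA plates bearing affinity-purified anti-FLK-1 antiserum.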

PDGF-R, sequence (P09619 33-1106, species assumed): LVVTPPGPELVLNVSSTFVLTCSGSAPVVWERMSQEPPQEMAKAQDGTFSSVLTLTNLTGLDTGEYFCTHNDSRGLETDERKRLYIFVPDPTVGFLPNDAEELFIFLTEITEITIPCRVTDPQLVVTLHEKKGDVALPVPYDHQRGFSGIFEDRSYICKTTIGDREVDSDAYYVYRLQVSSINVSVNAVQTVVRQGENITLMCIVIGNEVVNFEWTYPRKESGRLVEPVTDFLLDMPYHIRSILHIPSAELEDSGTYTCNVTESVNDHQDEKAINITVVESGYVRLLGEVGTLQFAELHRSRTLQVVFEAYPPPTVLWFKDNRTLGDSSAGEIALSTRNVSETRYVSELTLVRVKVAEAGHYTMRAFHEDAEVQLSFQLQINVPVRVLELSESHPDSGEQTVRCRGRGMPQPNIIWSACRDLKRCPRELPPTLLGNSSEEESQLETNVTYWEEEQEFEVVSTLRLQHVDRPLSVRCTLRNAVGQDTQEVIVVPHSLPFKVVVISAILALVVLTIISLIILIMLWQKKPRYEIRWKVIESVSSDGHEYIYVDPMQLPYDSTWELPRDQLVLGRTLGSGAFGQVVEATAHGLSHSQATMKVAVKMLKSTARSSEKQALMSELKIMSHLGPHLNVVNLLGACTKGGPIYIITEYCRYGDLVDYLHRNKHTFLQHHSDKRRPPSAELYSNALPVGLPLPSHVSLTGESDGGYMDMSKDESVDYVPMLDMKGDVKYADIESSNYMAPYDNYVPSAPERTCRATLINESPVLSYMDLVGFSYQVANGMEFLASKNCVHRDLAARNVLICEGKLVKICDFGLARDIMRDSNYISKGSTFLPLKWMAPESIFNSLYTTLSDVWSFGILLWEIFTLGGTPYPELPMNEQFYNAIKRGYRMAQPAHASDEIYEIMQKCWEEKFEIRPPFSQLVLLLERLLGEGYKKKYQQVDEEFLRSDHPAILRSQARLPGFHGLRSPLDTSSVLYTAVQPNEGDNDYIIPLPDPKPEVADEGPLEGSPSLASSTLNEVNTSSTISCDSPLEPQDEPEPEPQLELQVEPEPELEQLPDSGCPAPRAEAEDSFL
T1 sequence (P35918 20-1345): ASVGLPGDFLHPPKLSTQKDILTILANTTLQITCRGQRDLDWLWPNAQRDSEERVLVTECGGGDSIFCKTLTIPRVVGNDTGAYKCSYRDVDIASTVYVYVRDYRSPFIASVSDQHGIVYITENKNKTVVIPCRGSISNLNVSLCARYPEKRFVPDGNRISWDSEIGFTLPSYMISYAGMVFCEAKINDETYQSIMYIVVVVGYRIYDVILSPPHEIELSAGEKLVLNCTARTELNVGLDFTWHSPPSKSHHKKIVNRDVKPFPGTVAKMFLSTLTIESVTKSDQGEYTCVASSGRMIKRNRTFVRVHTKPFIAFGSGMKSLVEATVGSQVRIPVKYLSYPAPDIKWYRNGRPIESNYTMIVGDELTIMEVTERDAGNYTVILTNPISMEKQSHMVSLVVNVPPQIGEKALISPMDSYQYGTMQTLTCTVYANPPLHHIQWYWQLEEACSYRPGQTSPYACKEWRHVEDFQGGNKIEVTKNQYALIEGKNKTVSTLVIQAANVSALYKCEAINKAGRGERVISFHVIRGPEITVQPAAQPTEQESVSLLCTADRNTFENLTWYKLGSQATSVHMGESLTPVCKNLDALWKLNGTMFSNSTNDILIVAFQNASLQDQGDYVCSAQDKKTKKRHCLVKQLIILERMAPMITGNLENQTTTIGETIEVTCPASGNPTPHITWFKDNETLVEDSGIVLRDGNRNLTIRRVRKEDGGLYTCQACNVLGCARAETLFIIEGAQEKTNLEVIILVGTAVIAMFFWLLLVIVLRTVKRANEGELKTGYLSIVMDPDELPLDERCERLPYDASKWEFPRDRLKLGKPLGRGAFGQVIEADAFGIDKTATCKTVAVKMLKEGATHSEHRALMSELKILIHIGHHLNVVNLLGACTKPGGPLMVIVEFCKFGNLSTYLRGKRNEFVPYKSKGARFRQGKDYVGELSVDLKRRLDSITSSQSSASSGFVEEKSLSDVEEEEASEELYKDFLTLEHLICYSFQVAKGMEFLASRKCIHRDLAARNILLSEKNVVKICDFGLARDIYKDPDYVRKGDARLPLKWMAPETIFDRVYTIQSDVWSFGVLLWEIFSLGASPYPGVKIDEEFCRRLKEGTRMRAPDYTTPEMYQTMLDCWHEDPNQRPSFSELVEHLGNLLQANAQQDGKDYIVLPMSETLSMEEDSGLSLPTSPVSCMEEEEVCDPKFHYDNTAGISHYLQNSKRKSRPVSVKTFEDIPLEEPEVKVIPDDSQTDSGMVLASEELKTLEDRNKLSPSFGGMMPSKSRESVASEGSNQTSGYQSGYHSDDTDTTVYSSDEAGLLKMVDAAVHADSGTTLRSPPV

`CCn1c2ccccc2c2cc(C=C3C(=O)Nc4ccc(Br)c(C)c43)ccc21` [10731/C02]: the “PDGF Kinase %Inhibition” value in assay [1] was -2.5%. For the same compound, in assay [2], the “Fik Kinase %Inhibition” value came out at 3.1%.

Regarding `Cc1cc(C=C2C(=O)Nc3ccc(S(=O)(=O)N4CCOCC4)cc32)oc1C` [10730/F11], the “PDGF Kinase %Inhibition” value in assay [1] is given as 4.5%. The “Fik Kinase %Inhibition” value in assay [2] is listed as -1.3%.

`O=C1Nc2ccc(I)cc2C1=Cc1coc2ccc([N+](=O)[O-])cc2c1=O` [10731/B07]: the “PDGF Kinase %Inhibition” value in assay [1] came out at 6.0%. Besides, the “Fik Kinase %Inhibition” value in assay [2] was 11.7%.

Turning to `COc1ccc(C=C2C(=O)Nc3ccc(CCCl)cc32)c(OC)c1OC` [10730/G02], in assay [1], the “PDGF Kinase %Inhibition” value is reported as 18.1%. Moreover, the “Fik Kinase %Inhibition” value in assay [2] was determined as 23.3%.

Take `COc1ccc2[nH]cc(C=C3C(=O)Nc4ccc(I)cc43)c2c1` [10731/B09]: the “PDGF Kinase %Inhibition” value in assay [1] was 0.3%. The “Fik Kinase %Inhibition” value in assay [2] was -0.5%.

Consider `Cc1ccc2occ(C=C3C(=O)Nc4ccc(I)cc43)c(=O)c2c1` [10731/B06], for which the “PDGF Kinase %Inhibition” value in assay [1] is given as 5.6%. In addition, in assay [2], the “Fik Kinase %Inhibition” value came to 6.2%.

Take `O=C1Nc2c(Br)cc(Br)cc2C1=Cc1coc2ccc([N+](=O)[O-])cc2c1=O` [10731/A07]: the “PDGF Kinase %Inhibition” value in assay [1] came out at 4.6%. Also, in assay [2], the “Fik Kinase %Inhibition” value is -4.3%.

In the case of `COc1cc(C=C2C(=O)Nc3ccc(CCCl)cc32)cc(OC)c1OC` [10730/G04], the “PDGF Kinase %Inhibition” value in assay [1] was determined as 21.6%. For the same compound, the “Fik Kinase %Inhibition” value in assay [2] is listed as 7.4%.

In the case of `Cc1c(O)ccc(C=C2C(=O)Nc3ccc(Br)c(C)c32)c1O` [10718/C09], the “Fik Kinase %Inhibition” value in assay [2] was 5.3%.

Turning to `O=C1Nc2ccc(CCCl)cc2C1=Cc1cc2ccccc2nc1Cl` [10730/G08], the “PDGF Kinase %Inhibition” value in assay [1] stood at 20.3%. For the same compound, the “Fik Kinase %Inhibition” value in assay [2] worked out at 23.3%.

Regarding `CCOC(=O)CCc1c(C(=O)OCC)[nH]c(C=C2C(=O)Nc3ccc(Br)c(C)c32)c1CC(=O)OCC` [10718/C05], the “Fik Kinase %Inhibition” value in assay [2] stood at 20.5%.

As for `CCn1c2ccccc2c2cc(C=C3C(=O)Nc4c(Br)cc(Br)cc43)ccc21` [10731/A02], the “PDGF Kinase %Inhibition” value in assay [1] is reported as -3.9%. Moreover, in assay [2], the “Fik Kinase %Inhibition” value worked out at 2.7%.

Consider `O=C1Nc2ccc(CCCl)cc2C1=Cc1ccc(-c2ccccc2Cl)o1` [10730/G07], for which, in assay [1], the “PDGF Kinase %Inhibition” value is 19.9%. In addition, the “Fik Kinase %Inhibition” value in assay [2] turned out to be 8.3%.

`CC(C)c1ccc2occ(C=C3C(=O)Nc4ccc(I)cc43)c(=O)c2c1` [10731/B05]: in assay [1], the “PDGF Kinase %Inhibition” value was determined as 17.9%. For the same compound, the “Fik Kinase %Inhibition” value in assay [2] was found to be 3.8%.

With `CNS(=O)(=O)c1ccc2c(c1)C(=Cc1coc3cc(C)c(C)cc3c1=O)C(=O)N2` [10731/D03], the “PDGF Kinase %Inhibition” value in assay [1] stood at 28.4%. Moreover, in assay [2], the “Fik Kinase %Inhibition” value is recorded as 17.3%.

As to `CCOC(=O)c1cc(C=C2C(=O)Nc3ccc(Br)c(C)c32)oc1C` [10718/C06], the “Fik Kinase %Inhibition” value in assay [2] is reported as 16.8%.

`O=C1Nc2c(Br)cc(Br)cc2C1=Cc1c[nH]c(=O)[nH]c1=O` [10731/A08]: the “PDGF Kinase %Inhibition” value in assay [1] was -2.5%. The “Fik Kinase %Inhibition” value in assay [2] is on record as -13.8%.

`COc1cc(OC)c(OC)cc1C=C1C(=O)Nc2ccc(CCCl)cc21` [10730/G03]: the “PDGF Kinase %Inhibition” value in assay [1] is on record as 44.0%. Besides, the “Fik Kinase %Inhibition” value in assay [2] was found to be 15.2%.

`Cc1c(Br)ccc2c1C(=Cc1coc3ccc(C(C)C)cc3c1=O)C(=O)N2` [10731/C05]: the “PDGF Kinase %Inhibition” value in assay [1] amounted to 22.7%. The “Fik Kinase %Inhibition” value in assay [2] is listed as 14.9%.

As to `C=C(C)C1CC=C(C=C2C(=O)Nc3c(Br)cc(Br)cc32)CC1` (centres unmarked) [10731/A04], in assay [1], the “PDGF Kinase %Inhibition” value is recorded as 5.1%. Besides, the “Fik Kinase %Inhibition” value in assay [2] was determined as 5.0%.

As to `Cc1c(Br)ccc2c1C(=C1C(=O)N(C)c3ccccc31)C(=O)N2` [10731/C10], the “PDGF Kinase %Inhibition” value in assay [1] came to 6.5%. Further, in assay [2], the “Fik Kinase %Inhibition” value is 19.7%.

With `CN1C(=O)C(=C2C(=O)Nc3c(Br)cc(Br)cc32)c2ccccc21` [10731/A10], in assay [1], the “PDGF Kinase %Inhibition” value is -3.5%. The “Fik Kinase %Inhibition” value in assay [2] is recorded as -5.3%.

Regarding `Cc1ccc2occ(C=C3C(=O)Nc4ccc(Br)c(C)c43)c(=O)c2c1` [10731/C06], the “PDGF Kinase %Inhibition” value in assay [1] turned out to be 7.0%. The “Fik Kinase %Inhibition” value in assay [2] is 13.8%.

As to `COC1CC(C=C2C(=O)Nc3ccc(S(=O)(=O)N4CCOCC4)cc32)C(OC)O1` (centres unmarked) [10730/F10], the “PDGF Kinase %Inhibition” value in assay [1] amounted to 1.9%. Moreover, the “Fik Kinase %Inhibition” value in assay [2] is recorded as 13.4%.

For the compound `CC(=O)n1cc(C=C2C(=O)Nc3ccc(CCCl)cc32)c2ccccc21` [10730/G05], the “PDGF Kinase %Inhibition” value in assay [1] was 65.0%. Besides, the “Fik Kinase %Inhibition” value in assay [2] is on record as 22.3%.

Regarding `O=C1Nc2c(Br)cc(Br)cc2C1=Cc1ccc[nH]1` [10717/A09], in assay [2], the “Fik Kinase %Inhibition” value is -3.9%.

Turning to `COc1ccc2[nH]cc(C=C3C(=O)Nc4c(Br)cc(Br)cc43)c2c1` [10731/A09], in assay [1], the “PDGF Kinase %Inhibition” value is -14.4%. Moreover, in assay [2], the “Fik Kinase %Inhibition” value is -2.7%.

With `C=C(C)C1CC=C(C=C2C(=O)Nc3ccc(I)cc32)CC1` (centres unmarked) [10731/B04], the “PDGF Kinase %Inhibition” value in assay [1] was found to be 0.3%. For the same compound, the “Fik Kinase %Inhibition” value in assay [2] came out at 12.0%.

As to `CCn1c2ccccc2c2cc(C=C3C(=O)Nc4ccc(I)cc43)ccc21` [10731/B02], the “PDGF Kinase %Inhibition” value in assay [1] amounted to 13.2%. Also, the “Fik Kinase %Inhibition” value in assay [2] is given as 6.5%.

On to `COC1CC(C=C2C(=O)Nc3ccc(CCCl)cc32)C(OC)O1` (centres unmarked) [10730/G10], for which the “PDGF Kinase %Inhibition” value in assay [1] worked out at 22.1%. For the same compound, the “Fik Kinase %Inhibition” value in assay [2] was 11.3%.

`Cc1cc2occ(C=C3C(=O)Nc4ccc(Br)c(C)c43)c(=O)c2cc1C` [10731/C03]: the “PDGF Kinase %Inhibition” value in assay [1] came out at 11.3%. In addition, the “Fik Kinase %Inhibition” value in assay [2] is 4.5%.

As for `Cc1c(Br)ccc2c1C(=Cc1coc3ccc([N+](=O)[O-])cc3c1=O)C(=O)N2` [10731/C07], the “PDGF Kinase %Inhibition” value in assay [1] stood at 31.3%. In addition, the “Fik Kinase %Inhibition” value in assay [2] is recorded as 70.4%.

Turning to `O=C1Nc2ccc(I)cc2C1=Cc1c[nH]c(=O)[nH]c1=O` [10731/B08], the “PDGF Kinase %Inhibition” value in assay [1] was -23.4%. Besides, the “Fik Kinase %Inhibition” value in assay [2] was 6.2%.

As for `Cc1cc2occ(C=C3C(=O)Nc4ccc(I)cc43)c(=O)c2cc1C` [10731/B03], the “PDGF Kinase %Inhibition” value in assay [1] is on record as 9.9%. In addition, in assay [2], the “Fik Kinase %Inhibition” value turned out to be 1.9%.

As for `Cc1cc2occ(C=C3C(=O)Nc4c(Br)cc(Br)cc43)c(=O)c2cc1C` [10731/A03], the “PDGF Kinase %Inhibition” value in assay [1] is given as 7.5%. In assay [2], the “Fik Kinase %Inhibition” value is 2.5%.

As to `Cc1c(Br)ccc2c1C(=Cc1c[nH]c(=O)[nH]c1=O)C(=O)N2` [10731/C08], the “PDGF Kinase %Inhibition” value in assay [1] was -3.0%. Further, the “Fik Kinase %Inhibition” value in assay [2] came out at 10.2%.

For the compound `COc1ccc2[nH]cc(C=C3C(=O)Nc4ccc(Br)c(C)c43)c2c1` [10731/C09], in assay [1], the “PDGF Kinase %Inhibition” value is listed as -6.3%. Moreover, the “Fik Kinase %Inhibition” value in assay [2] is 15.1%.

As for `Cc1cc(C=C2C(=O)Nc3ccc(CCCl)cc32)oc1C` [10730/G11], the “PDGF Kinase %Inhibition” value in assay [1] is -0.3%. Also, the “Fik Kinase %Inhibition” value in assay [2] is -1.4%.

Consider `CN1C(=O)C(=C2C(=O)Nc3ccc(I)cc32)c2ccccc21` [10731/B10], for which, in assay [1], the “PDGF Kinase %Inhibition” value came to 4.6%. Further, the “Fik Kinase %Inhibition” value in assay [2] is listed as 1.3%.

Regarding `CC(C)c1ccc2occ(C=C3C(=O)Nc4c(Br)cc(Br)cc43)c(=O)c2c1` [10731/A05], the “PDGF Kinase %Inhibition” value in assay [1] came to 14.1%. Further, the “Fik Kinase %Inhibition” value in assay [2] is listed as -6.5%.

As to `Cc1ccc2occ(C=C3C(=O)Nc4c(Br)cc(Br)cc43)c(=O)c2c1` [10731/A06], in assay [1], the “PDGF Kinase %Inhibition” value is listed as 1.3%. Moreover, the “Fik Kinase %Inhibition” value in assay [2] is -5.5%.

`Cc1c(Br)ccc2c1C(=Cc1ccc(Cl)c([N+](=O)[O-])c1)C(=O)N2` [10718/C08]: the “Fik Kinase %Inhibition” value in assay [2] turned out to be 19.6%.

Turning to `COC(=O)c1[nH]c(C)c(C=C2C(=O)Nc3ccc(Br)c(C)c32)c1C(=O)OC` [10718/C07], in assay [2], the “Fik Kinase %Inhibition” value was 6.3%.

On to `O=C1Nc2ccc(S(=O)(=O)N3CCOCC3)cc2C1=Cc1coc2c(Br)cc(Br)cc2c1=O` [10730/F09], for which, in assay [1], the “PDGF Kinase %Inhibition” value amounted to 13.3%. The “Fik Kinase %Inhibition” value in assay [2] is 14.4%.

For `CCn1c2ccccc2c2cc(C=C3C(=O)Nc4ccc(S(=O)(=O)NC)cc43)ccc21` [10731/D02], the “PDGF Kinase %Inhibition” value in assay [1] is listed as 17.9%. Moreover, in assay [2], the “Fik Kinase %Inhibition” value was -8.4%.

With `C=C(C)C1CC=C(C=C2C(=O)Nc3ccc(Br)c(C)c32)CC1` (centres unmarked) [10731/C04], the “PDGF Kinase %Inhibition” value in assay [1] amounted to 15.1%. Besides, the “Fik Kinase %Inhibition” value in assay [2] was 10.5%.
